Results as given in article PMC8804275 (IBRO Neuroscience Reports, 2022).

How the values were obtained:
hCB1R [1] = molecular target: T1, hCB1R (Homo sapiens, UniProt P21554); test: HitHunter cAMP assay, inhibition of forskolin-stimulated cAMP; assay type: cell-based; conditions: 10 µM FSK, 90 min, 37 °C; agonism mode without CP55,940; allosteric ago-PAM
hCB1R [2] = molecular target: T1, hCB1R; test: PathHunter βarrestin2 recruitment assay; assay type: cell-based; conditions: 90 min, 37 °C; agonism mode without CP55,940; allosteric ago-PAM

T1 sequence (P21554 whole entry): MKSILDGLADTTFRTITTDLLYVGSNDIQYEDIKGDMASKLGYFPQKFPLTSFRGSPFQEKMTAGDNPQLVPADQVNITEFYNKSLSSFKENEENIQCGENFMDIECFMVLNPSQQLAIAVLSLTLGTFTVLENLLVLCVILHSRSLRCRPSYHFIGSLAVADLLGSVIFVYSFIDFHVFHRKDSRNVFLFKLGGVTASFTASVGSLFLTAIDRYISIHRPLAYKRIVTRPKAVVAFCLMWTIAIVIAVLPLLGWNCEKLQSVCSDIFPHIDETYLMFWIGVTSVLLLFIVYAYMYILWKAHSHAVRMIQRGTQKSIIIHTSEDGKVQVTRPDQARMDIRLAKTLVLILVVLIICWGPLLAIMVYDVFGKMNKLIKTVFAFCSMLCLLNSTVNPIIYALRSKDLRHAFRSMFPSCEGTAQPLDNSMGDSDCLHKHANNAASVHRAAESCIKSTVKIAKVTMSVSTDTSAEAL

Row | Compound | EC50 (hCB1R [1]) [µM] | EC50 (hCB1R [2]) [µM]
1 | O=[N+]([O-])CC(c1ccccc1F)c1c(-c2cccc(F)c2)[nH]c2c(F)cccc12 (stereo not shown) [GAT593] | 0.045 | > 10
2 | GAT591 | 0.0041 | 1.3
